Test results: article PMC5218480 (PLoS ONE, 2017)

System: MV-4-11 cells
Assay: Gene expression microarray analysis (Affymetrix PrimeView) and GSEA
Type: cell-based, human
Set-up: RFU PODN (11730768_x_at) / Fold change /veh PODN (11730768_x_at) / RFU LINC00158 (11744669_a_at) / Fold change /veh LINC00158 (11744669_a_at) / RFU DUSP10 (11751237_a_at) / Fold change /veh DUSP10 (11751237_a_at) / RFU ID3 (11757404_x_at) / Fold change /veh ID3 (11757404_x_at) / RFU PLEKHG5 (11737974_s_at) / Fold change /veh PLEKHG5 (11737974_s_at) / RFU LRRC4B (11730491_at) / Fold change /veh LRRC4B (11730491_at) / RFU GIMAP4 (11747438_a_at) / Fold change /veh GIMAP4 (11747438_a_at) / RFU KRT8 (11758183_x_at) / Fold change /veh KRT8 (11758183_x_at) / RFU CNN1 (11734310_a_at) / Fold change /veh CNN1 (11734310_a_at) / RFU VPS37D (11726825_at) / Fold change /veh VPS37D (11726825_at) / RFU C10orf10 (11716522_x_at) / Fold change /veh C10orf10 (11716522_x_at) / RFU KIR2DL2 /// KIR2DL4 /// KIR2DL5A /// KIR2DL5B /// KIR2DS1 /// KIR2DS2 /// KIR2DS3 /// KIR2DS4 /// KIR3DL3 /// KIR3DL3 /// KIR3DS1 (11738374_at) / Fold change /veh KIR2DL2 /// KIR2DL4 /// KIR2DL5A /// KIR2DL5B /// KIR2DS1 /// KIR2DS2 /// KIR2DS3 /// KIR2DS4 /// KIR3DL3 /// KIR3DL3 /// KIR3DS1 (11738374_at) / RFU C1QL1 (11718748_at) / Fold change /veh C1QL1 (11718748_at) / RFU TMPRSS4 (11747572_a_at) / Fold change /veh TMPRSS4 (11747572_a_at) / RFU HAMP (11756126_x_at) / Fold change /veh HAMP (11756126_x_at) / RFU RNFT2 (11725882_a_at) / Fold change /veh RNFT2 (11725882_a_at) / RFU NR4A2 (11747474_a_at) / Fold change /veh NR4A2 (11747474_a_at) / RFU ABCC12 (11746883_a_at) / Fold change /veh ABCC12 (11746883_a_at) / RFU TMEM136 (11760407_x_at) / Fold change /veh TMEM136 (11760407_x_at) / RFU CLDN22 /// WWC2 (11732394_at) / Fold change /veh CLDN22 /// WWC2 (11732394_at) / RFU HLA-DPB1 (11760878_x_at) / Fold change /veh HLA-DPB1 (11760878_x_at) / RFU SPINT1 (11716480_a_at) / Fold change /veh SPINT1 (11716480_a_at) / RFU GAP43 (11754022_s_at) / Fold change /veh GAP43 (11754022_s_at) / RFU A4GNT (11735810_at) / Fold change /veh A4GNT (11735810_at) / RFU PRB3 (11715151_x_at) / Fold change /veh PRB3 (11715151_x_at) / RFU TUBB4B (11761932_at) / Fold change /veh TUBB4B (11761932_at) / RFU CAPN14 (11732068_a_at) / Fold change /veh CAPN14 (11732068_a_at) / RFU TMCC2 (11721928_a_at) / Fold change /veh TMCC2 (11721928_a_at) / RFU IRGQ (11745062_a_at) / Fold change /veh IRGQ (11745062_a_at) / RFU FAM174B (11720279_a_at) / Fold change /veh FAM174B (11720279_a_at) / RFU TMPRSS4 (11748680_a_at) / Fold change /veh TMPRSS4 (11748680_a_at) / RFU FAM212B (11763350_a_at) / Fold change /veh FAM212B (11763350_a_at) / RFU PLEKHG5 (11743358_a_at) / Fold change /veh PLEKHG5 (11743358_a_at) / RFU ZSCAN30 (11745921_a_at) / Fold change /veh ZSCAN30 (11745921_a_at) / RFU CMKLR1 (11741424_a_at) / Fold change /veh CMKLR1 (11741424_a_at) / RFU LOC101060620 /// MAPK8IP1 (11723275_at) / Fold change /veh LOC101060620 /// MAPK8IP1 (11723275_at) / RFU SPTSSB (11747773_x_at) / Fold change /veh SPTSSB (11747773_x_at) / RFU PRSS12 (11739890_at) / Fold change /veh PRSS12 (11739890_at) / RFU BIN1 (11741810_x_at) / Fold change /veh BIN1 (11741810_x_at) / RFU WNT11 (11732464_a_at) / Fold change /veh WNT11 (11732464_a_at) / RFU C10orf10 (11716521_a_at) / Fold change /veh C10orf10 (11716521_a_at) / RFU C5orf56 (11738089_at) / Fold change /veh C5orf56 (11738089_at) / RFU CYB561 (11721691_x_at) / Fold change /veh CYB561 (11721691_x_at) / RFU ANKRD19P (11752326_a_at) / Fold change /veh ANKRD19P (11752326_a_at) / RFU OR2T12 /// OR2T33 /// OR2T8 (11738714_s_at) / Fold change /veh OR2T12 /// OR2T33 /// OR2T8 (11738714_s_at) / RFU VCAN (11748164_a_at) / Fold change /veh VCAN (11748164_a_at) / RFU JSRP1 (11732532_at) / Fold change /veh JSRP1 (11732532_at) / RFU KRTAP10-11 (11738290_x_at) / Fold change /veh KRTAP10-11 (11738290_x_at) / RFU MYO3A (11730013_a_at) / Fold change /veh MYO3A (11730013_a_at) / RFU EBF3 (11725865_a_at) / Fold change /veh EBF3 (11725865_a_at) / RFU CAMK2N1 (11719241_x_at) / Fold change /veh CAMK2N1 (11719241_x_at) / RFU C5orf56 (11738088_a_at) / Fold change /veh C5orf56 (11738088_a_at) / RFU OLFML3 (11715873_a_at) / Fold change /veh OLFML3 (11715873_a_at) / RFU LOC100653217 /// NTM (11731650_a_at) / Fold change /veh LOC100653217 /// NTM (11731650_a_at) / RFU MAPK11 (11762145_a_at) / Fold change /veh MAPK11 (11762145_a_at) / RFU FIZ1 (11724087_x_at) / Fold change /veh FIZ1 (11724087_x_at) / RFU OASL (11726364_x_at) / Fold change /veh OASL (11726364_x_at) / RFU SOX15 (11748057_x_at) / Fold change /veh SOX15 (11748057_x_at) / RFU CD79A (11719716_a_at) / Fold change /veh CD79A (11719716_a_at) / RFU HIST1H1D (11736915_at) / Fold change /veh HIST1H1D (11736915_at) / RFU CASKIN2 (11723855_a_at) / Fold change /veh CASKIN2 (11723855_a_at) / RFU LOC730098 (11760151_x_at) / Fold change /veh LOC730098 (11760151_x_at) / RFU OR4N2 (11742367_at) / Fold change /veh OR4N2 (11742367_at) / RFU PRRT2 (11749266_a_at) / Fold change /veh PRRT2 (11749266_a_at) / RFU SNX32 (11753110_a_at) / Fold change /veh SNX32 (11753110_a_at) / RFU CDHR5 (11726645_a_at) / Fold change /veh CDHR5 (11726645_a_at) / RFU RCAN1 (11760418_a_at) / Fold change /veh RCAN1 (11760418_a_at) / RFU FAM167A (11723789_a_at) / Fold change /veh FAM167A (11723789_a_at) / RFU FAM26E (11764081_at) / Fold change /veh FAM26E (11764081_at) / RFU ISYNA1 (11749810_s_at) / Fold change /veh ISYNA1 (11749810_s_at) / RFU ACY1 (11761880_at) / Fold change /veh ACY1 (11761880_at) / RFU 11764098_at / Fold change /veh 11764098_at / RFU SAMD14 (11745864_x_at) / Fold change /veh SAMD14 (11745864_x_at) / RFU NPB (11741838_a_at) / Fold change /veh NPB (11741838_a_at) / RFU TMPRSS6 (11731388_a_at) / Fold change /veh TMPRSS6 (11731388_a_at) / RFU KRTAP10-2 (11738614_at) / Fold change /veh KRTAP10-2 (11738614_at) / RFU ARHGAP8 /// PRR5-ARHGAP8 (11727945_x_at) / Fold change /veh ARHGAP8 /// PRR5-ARHGAP8 (11727945_x_at) / RFU KRTAP5-7 /// NADSYN1 (11734609_at) / Fold change /veh KRTAP5-7 /// NADSYN1 (11734609_at) / RFU RASL12 (11751679_a_at) / Fold change /veh RASL12 (11751679_a_at) / RFU CDKN2B (11736163_a_at) / Fold change /veh CDKN2B (11736163_a_at) / RFU PRF1 (11729649_at) / Fold change /veh PRF1 (11729649_at) / RFU, ZNF638 /// ZNF638-IT1 / Fold change vs veh, ZNF638 /// ZNF638-IT1 / RFU, PANK3 / Fold change vs veh, PANK3 / RFU, SH3YL1 / Fold change vs veh, SH3YL1 / RFU, ZEB2 / Fold change vs veh, ZEB2 / RFU, NRIP1 / Fold change vs veh, NRIP1 / RFU, PTTG1IP / Fold change vs veh, PTTG1IP / RFU, CAPN2 / Fold change vs veh, CAPN2 / RFU, MED14 / Fold change vs veh, MED14 / RFU, SNORA58 / Fold change vs veh, SNORA58 / RFU, C1orf63 / Fold change vs veh, C1orf63 / RFU, LRRFIP1 / Fold change vs veh, LRRFIP1 / RFU, NDUFAF7 / Fold change vs veh, NDUFAF7 / RFU, SLC12A2 / Fold change vs veh, SLC12A2 / RFU, IBTK / Fold change vs veh, IBTK / RFU, ESF1 / Fold change vs veh, ESF1 / Fold change vs veh, TMEM50B / RFU, TAOK1 / Fold change vs veh, TAOK1 / RFU, ACBD3 / Fold change vs veh, ACBD3 / RFU, TMA16 / Fold change vs veh, TMA16 / RFU, RWDD3 / Fold change vs veh, RWDD3 / RFU, BCAT1 / Fold change vs veh, BCAT1 / RFU, EDEM3 / Fold change vs veh, EDEM3 / RFU, TMEM33 / Fold change vs veh, TMEM33 / RFU, WDR75 / Fold change vs veh, WDR75 / RFU, AHCTF1 / Fold change vs veh, AHCTF1 / RFU, TFRC / Fold change vs veh, TFRC / RFU, ZDHHC17 / Fold change vs veh, ZDHHC17 / RFU, NOM1 / Fold change vs veh, NOM1 / RFU, ARL8B / Fold change vs veh, ARL8B / RFU, ZBTB11 / Fold change vs veh, ZBTB11 / RFU, TAMM41 / Fold change vs veh, TAMM41 / RFU, KIAA1704 /// LOC100996395 / Fold change vs veh, KIAA1704 /// LOC100996395 / RFU, ING1 / Fold change vs veh, ING1 / RFU, TRMT61B / Fold change vs veh, TRMT61B / RFU, FUBP3 / Fold change vs veh, FUBP3 / RFU, TP53 / Fold change vs veh, TP53 / RFU, TNKS2 / Fold change vs veh, TNKS2 / RFU, ZFP14 / Fold change vs veh, ZFP14 / RFU, ACTR2 / Fold change vs veh, ACTR2 / RFU, PPP3R1 / Fold change vs veh, PPP3R1 / RFU, PIK3R1 / Fold change vs veh, PIK3R1 / RFU, HNRNPA1 / Fold change vs veh, HNRNPA1 / RFU, RNF170 / Fold change vs veh, RNF170 / RFU, ZNF28 / Fold change vs veh, ZNF28 / RFU, RNGTT / Fold change vs veh, RNGTT / RFU, OGT / Fold change vs veh, OGT / RFU, BRD1 / Fold change vs veh, BRD1 / RFU, MARS / Fold change vs veh, MARS / RFU, ZNF655 / Fold change vs veh, ZNF655 / RFU, FAHD1 / Fold change vs veh, FAHD1 / RFU, BDP1 / Fold change vs veh, BDP1 / RFU, LRRCC1 / Fold change vs veh, LRRCC1 / RFU, ARID1A / Fold change vs veh, ARID1A / RFU, ZNF146 / Fold change vs veh, ZNF146 / RFU, ZNF330 / Fold change vs veh, ZNF330 / RFU, GPN3 / Fold change vs veh, GPN3 / RFU, C9orf123 / Fold change vs veh, C9orf123 / RFU, N4BP2L2 / Fold change vs veh, N4BP2L2 / RFU, ARFIP1 / Fold change vs veh, ARFIP1 / RFU, FAM179B / Fold change vs veh, FAM179B / RFU, BCL10 / Fold change vs veh, BCL10 / RFU, UHRF1BP1L / Fold change vs veh, UHRF1BP1L / RFU, BET1 / Fold change vs veh, BET1 / RFU, CNOT2 / Fold change vs veh, CNOT2 / RFU, ZNF268 / Fold change vs veh, ZNF268 / Fold change vs veh, ZNF507 / RFU, DGCR2 / Fold change vs veh, DGCR2 / RFU, WDSUB1 / Fold change vs veh, WDSUB1 / Fold change vs veh, HSP90B1 /// MIR3652 / RFU, ADSS / Fold change vs veh, ADSS / RFU, GK / Fold change vs veh, GK / RFU, ZNF148 / Fold change vs veh, ZNF148 / RFU, TAF9 / Fold change vs veh, TAF9 / RFU, SLC1A5 / Fold change vs veh, SLC1A5 / RFU, SLMO2 / Fold change vs veh, SLMO2 / RFU, ABCC4 / Fold change vs veh, ABCC4 / RFU, LOC101060439 /// RAP1B / Fold change vs veh, LOC101060439 /// RAP1B / RFU, RFX7 / Fold change vs veh, RFX7 / RFU, GTPBP10 / Fold change vs veh, GTPBP10 / RFU, CNEP1R1 / Fold change vs veh, CNEP1R1 / RFU, BIVM-ERCC5 /// ERCC5 / Fold change vs veh, BIVM-ERCC5 /// ERCC5 / RFU, ILF3 / Fold change vs veh, ILF3 / RFU 11762660_at / Fold change /veh 11762660_at / RFU VCAN (11757783_s_at) / Fold change /veh VCAN (11757783_s_at) / RFU DDX43 (11728927_at) / Fold change /veh DDX43 (11728927_at) / RFU KRT8 (11758188_x_at) / Fold change /veh KRT8 (11758188_x_at) / RFU NKD1 (11759106_at) / Fold change /veh NKD1 (11759106_at) / RFU SRD5A1 (11742802_a_at) / Fold change /veh SRD5A1 (11742802_a_at) / RFU TPSAB1 /// TPSB2 (11721975_s_at) / Fold change /veh TPSAB1 /// TPSB2 (11721975_s_at) / RFU GSTM3 (11746129_a_at) / Fold change /veh GSTM3 (11746129_a_at) / RFU IL23R (11737362_x_at) / Fold change /veh IL23R (11737362_x_at) / RFU TMEM51 (11727254_a_at) / Fold change /veh TMEM51 (11727254_a_at) / RFU PIWIL2 (11732686_x_at) / Fold change /veh PIWIL2 (11732686_x_at) / RFU ORM1 (11744905_x_at) / Fold change /veh ORM1 (11744905_x_at) / RFU CCDC152 (11743942_at) / Fold change /veh CCDC152 (11743942_at) / RFU ECM1 (11717891_a_at) / Fold change /veh ECM1 (11717891_a_at) / RFU IL23R (11748794_a_at) / Fold change /veh IL23R (11748794_a_at) / RFU TNFAIP8L3 (11732012_x_at) / Fold change /veh TNFAIP8L3 (11732012_x_at) / RFU MBOAT4 (11741988_at) / Fold change /veh MBOAT4 (11741988_at) / RFU 11764193_at / Fold change /veh 11764193_at / RFU TMEM53 (11763286_at) / Fold change /veh TMEM53 (11763286_at) / RFU MAGEB2 (11727129_at) / Fold change /veh MAGEB2 (11727129_at) / RFU TMEM200A (11744735_a_at) / Fold change /veh TMEM200A (11744735_a_at) / RFU CCDC152 (11751479_a_at) / Fold change /veh CCDC152 (11751479_a_at) / RFU FAM211A (11726209_a_at) / Fold change /veh FAM211A (11726209_a_at) / RFU RGS16 (11746705_a_at) / Fold change /veh RGS16 (11746705_a_at) / RFU VCAN (11755009_s_at) / Fold change /veh VCAN (11755009_s_at) / RFU RHOB (11743442_s_at) / Fold change /veh RHOB (11743442_s_at) / RFU RGS16 (11720943_a_at) / Fold change /veh RGS16 (11720943_a_at) / RFU RGS16 (11720944_at) / Fold change /veh RGS16 (11720944_at) / RFU, VPS4B / Fold change vs veh, VPS4B / RFU, CREB1 / Fold change vs veh, CREB1 / RFU, DNAJC13 / Fold change vs veh, DNAJC13 / RFU, GNAQ / Fold change vs veh, GNAQ / RFU, CDK5R1 / Fold change vs veh, CDK5R1 / RFU, ZRANB3 / Fold change vs veh, ZRANB3 / RFU, CUL4A / Fold change vs veh, CUL4A / RFU, CCNY / Fold change vs veh, CCNY / RFU, UFL1 / Fold change vs veh, UFL1 / RFU, COG3 / Fold change vs veh, COG3 / RFU, DIAPH2 / Fold change vs veh, DIAPH2 / RFU, SKA2 / Fold change vs veh, SKA2 / RFU, AFF3 / Fold change vs veh, AFF3 / RFU, LMF1 / Fold change vs veh, LMF1 / RFU, IPO11 / Fold change vs veh, IPO11 / RFU, DFFB / Fold change vs veh, DFFB / RFU, FOXP1 / Fold change vs veh, FOXP1 / RFU, CARD8 / Fold change vs veh, CARD8 / RFU, STRN3 / Fold change vs veh, STRN3 / RFU, ADK / Fold change vs veh, ADK / RFU, RASSF2 / Fold change vs veh, RASSF2 / RFU, WIPF1 / Fold change vs veh, WIPF1 / RFU, LARP1B / Fold change vs veh, LARP1B / RFU, RASA1 / Fold change vs veh, RASA1 / RFU, RB1 / Fold change vs veh, RB1 / RFU, PPFIA1 / Fold change vs veh, PPFIA1 / RFU, MAT2A / Fold change vs veh, MAT2A / RFU, CCT5 / Fold change vs veh, CCT5 / RFU, WDR92 / Fold change vs veh, WDR92 / RFU, CUX1 / Fold change vs veh, CUX1 / RFU, TTC7A / Fold change vs veh, TTC7A / RFU, TMEM135 / Fold change vs veh, TMEM135 / RFU, DEPTOR / Fold change vs veh, DEPTOR / RFU, CPM / Fold change vs veh, CPM / RFU, DNAJB6 / Fold change vs veh, DNAJB6 / RFU, CACNA2D3 / Fold change vs veh, CACNA2D3 / RFU, DTX4 / Fold change vs veh, DTX4 / RFU, TFCP2 / Fold change vs veh, TFCP2 / RFU, GMCL1 /// GMCL1P1 / Fold change vs veh, GMCL1 /// GMCL1P1 / RFU, AEBP2 / Fold change vs veh, AEBP2 / RFU, SNHG1 /// SNORD22 /// SNORD25 /// SNORD26 /// SNORD27 /// SNORD28 /// SNORD29 /// SNORD31 / Fold change vs veh, SNHG1 /// SNORD22 /// SNORD25 /// SNORD26 /// SNORD27 /// SNORD28 /// SNORD29 /// SNORD31 / Fold change (Aza/veh), C12orf56 (ProbeSet 11735607_a_at) / Fold change (ACY-1035/veh), C12orf56 (ProbeSet 11735607_a_at) / Fold change (Aza/veh), FGFR1OP (ProbeSet 11751329_s_at) / Fold change (ACY-1035/veh), FGFR1OP (ProbeSet 11751329_s_at) / Fold change (Aza/veh), VPS36 (ProbeSet 11739960_a_at) / Fold change (ACY-1035/veh), VPS36 (ProbeSet 11739960_a_at) / RFU SYPL1 (11715823_x_at) / Fold change /veh SYPL1 (11715823_x_at) / RFU IGFBP7 (11715501_s_at) / Fold change /veh IGFBP7 (11715501_s_at) / RFU REEP3 (11722064_at) / Fold change /veh REEP3 (11722064_at) / RFU IGLL1 (11728026_x_at) / Fold change /veh IGLL1 (11728026_x_at): dose or concentration left out as unconfirmed
Conditions: ProbeSet 11730252_s_at; LIST B

## Nc1ncn([C@@H]2O[C@H](CO)[C@@H](O)[C@H]2O)c(=O)n1 [azacitidine]
  RFU, AHCTF1: 220.95 RFU
